Experimental data: patent publication US20130072517A1 (Avanir Pharmaceuticals, Inc., priority 2002, published 2013)

Assays:
[1] = format: in vivo
Excerpt: An adverse event was any unfavorable and unintended sign (including an abnormal laboratory finding, for example), symptom, or disease temporally associated with the use of a medicinal product, whether or not considered related to the medicinal product. Changes associated with normal growth and development not varying in frequency or magnitude from that ordinarily anticipated clinically are not adverse events (for example, onset of menstruation occurring at a physiologically appropriate time). Clinical adverse events were described by diagnosis and not by symptoms when possible (for example, cold or seasonal allergies, instead of “runny nose”).
The severity of adverse events was graded on a 3-point scale and reported in detail as indicated on the Case Report Form: mild—easily tolerated, causing minimal discomfort, and not interfering with normal everyday activities; moderate—sufficiently discomforting to interfere with normal everyday activities; and severe—incapacitating and/or preventing normal everyday activities.
Subjects were instructed to promptly report any adverse event. The serious adverse event was assessed for the following details: seriousness of event, start date, stop date, intensity, frequency, relationship to test drug, action taken regarding test drug, treatment required, and outcome to date. These details were recorded on the Case Report Form. Such preliminary reports were followed by detailed descriptions that included copies of hospital case reports, autopsy reports, and other documents when requested and applicable.
Blood and urine were collected at the screening visit and Day 29 for clinical chemistry, hematology, urinalysis, and pregnancy testing. In the event of an abnormal laboratory test value, the test was repeated within one week, and the subject was followed up until the value returned to the normal range and/or until an adequate explanation of the abnormality was found.
Values were obtained for systolic and diastolic blood pressure, heart rate, and respiration rate on the screening visit and all other study visits. All values outside the pre-defined ranges were flagged in the subject data listings. Electrocardiography (twelve lead) was used to obtain ventricular rate (VR), QT, Q-Tc intervals, […] (PR), and QRS duration. A blood sample (10 mL whole blood) was taken from each subject at the Screening Visit for CYP2D6 genotyping to determine which subjects were poor metabolizers of DM and which were extensive metabolizers. Blood samples were taken on Day 29 for the determination of concentrations of DM, DX, and Q in plasma. The relationship between the concentration of drug in plasma and changes in CNS-LS scores was determined, and the effect of the CYP2D6 genotype on this relationship was evaluated.

[2] = test system: ALS subjects with pseudobulbar affect; assay: Clinical Study #4: QOL and QOR visual analog scales; format: in vivo, human
Procedure: Subjects completed the CNS-LS questionnaire and visual analog scales assessing quality of life (QOL) and quality of relationships (QOR) every two weeks (Days 1, 15, and 29) during the treatment period. A clinical psychologist, or other approved clinician, administered the Hamilton Rating Scale for Depression (HRSD) at the Screening Visit and on Day 29. Safety was evaluated on Day 15 and Day 29 by examining adverse events, results of physical examinations, vital signs, clinical laboratory values, and resting electrocardiograms (ECGs). In addition to blood samples taken to provide clinical laboratory data, blood was also taken for pharmacokinetic analysis and CYP2D6 genotyping. Each subject completed a diary in which the number of episodes experienced, medications taken, and any adverse events were recorded daily.
The primary efficacy variable was the CNS-LS score. All efficacy variables involving a change were determined by the baseline score being subtracted from the mean of the non-missing scores on Days 15 and 29. The secondary efficacy variables were laughing/crying episodes, QOL scores, and QOR scores. […]
Secondary efficacy was assessed by using two, 10-cm visual analog scales (VAS). One scale asked subjects to rate how much uncontrollable laughter, tearfulness, or anger had affected the overall quality of their life during the past week, and one scale asked subjects to rate how much uncontrollable laughter, tearfulness, or anger had affected the quality of their relationships with others during the past week. Each scale required less than one minute to complete. The subjects recorded episodes of pathological laughing and crying in a diary daily.

[3] = Clinical Study #5: concentrations in plasma of DM, DX and Q and correlation with pain intensity; format: in vivo, human; settings: final visit; for Concentration in plasma, Mean / Concentration in plasma, Median: extensive metabolizers
Procedure: Subjects visited the clinic every two weeks during the four-week duration of the study and were contacted by telephone during weeks without clinic visits. At each subsequent study visit or weekly phone call, the subjects were given the Pain Intensity Rating Scale and the Pain Relief Rating Scale and were queried regarding any adverse events that might have occurred since their previous visit. Subjects were administered the Peripheral Neuropathy Quality of Life (QOL) Instrument on Days 1 and 29 (or the final visit). Blood samples were taken at the visits on Day 15 and Day 29 to determine concentrations in plasma of DM, DX, and Q.

[4] = Clinical Study #1: adverse events in dextromethorphan phenotyping and quinidine dose determination study; settings: single oral dose 30 mg capsule; headache, mild
Procedure: A phenotyping study directed to dextromethorphan was conducted. The study was an open-label single dose study. Subjects were screened to ensure they met the inclusion and exclusion criteria. Subjects received a single oral dose of dextromethorphan hydrobromide 30 mg capsule taken with 240 mL of tap water. A total of fifty-eight subjects were screened and fifty subjects dosed. The study determined each subject's ability to metabolize dextromethorphan. Subjects who met the inclusion/exclusion criteria remained in house for dosing. Each subject was administered one 30 mg capsule (P.M.) of dextromethorphan. Urine was collected predose through 12 hours postdose and analyzed for dextromethorphan and dextrorphan.
The study was an open-label, randomized, multiple dose study. Subjects identified as extensive metabolizers received an evening dose on Day 1, at 12-hour intervals for the next six days, with a final morning dose on Day 8. All subjects were instructed to dose themselves at home on eight occasions with medication dispensed to them. Subjects maintained a diary during the study to record adverse effects. […]
A total of eight blood samples (40 mL) were drawn during the study (including the dextromethorphan screen) for drug analysis. […] At the end of the interval, the total volume was recorded and two aliquots were frozen at −20° C. until assayed for dextromethorphan and dextrorphan.

[5] = All Days: mean of scores on Days 15 and 29 minus Day 1

COc1ccc2c(c1)[C@]13CCCCC1[C@H](C2)N(C)CC3 (single isomer, unassigned; (+)) [Dextromethorphan, (+)-3-methoxy-N-methylmorphinan]
Subjects with dizziness ([1]; 28 days, twice daily): 15.2%
Subjects with loose stools ([1]; 28 days, twice daily): Three
Subjects with nausea ([1]; 28 days, twice daily): 6.1%
Subjects with somnolence ([1]; 28 days, twice daily): 3.0%
Subjects who withdrew because of adverse events ([1]; human, in vivo, 29 days): 6.1%
CPK, change Baseline to Day 29 ([1]; relative to the 30DM/30Q group): significant increase in CPK
Change in VAS QOL score, Max [2, 5]: 27
Change in VAS QOL score, Mean [2, 5]: −17.41
Change in VAS QOL score, Median [2, 5]: −11.0
Change in VAS QOL score, Min [2, 5]: −90.5
Change in VAS QOR score, Max [2, 5]: 23.5
Change in VAS QOR score, Mean [2, 5]: −9.98
Change in VAS QOR score, Median [2, 5]: −4.50
Change in VAS QOR score, Min [2, 5]: −71.0
Change in VAS QOL score, Max ([2]; Day 15 minus Day 1): 55
Change in VAS QOL score, Mean ([2]; Day 15 minus Day 1): −17.14
Change in VAS QOL score, Median ([2]; Day 15 minus Day 1): −13
Change in VAS QOL score, Min ([2]; Day 15 minus Day 1): −90
Change in VAS QOR score, Max ([2]; Day 15 minus Day 1): 34
Change in VAS QOR score, Mean ([2]; Day 15 minus Day 1): −11.75
Change in VAS QOR score, Median ([2]; Day 15 minus Day 1): −7
Change in VAS QOR score, Min ([2]; Day 15 minus Day 1): −71
Change in VAS QOL score, Max ([2]; Day 29 minus Day 1): 27
Change in VAS QOL score, Mean ([2]; Day 29 minus Day 1): −19.31
Change in VAS QOL score, Median ([2]; Day 29 minus Day 1): −7
Change in VAS QOL score, Min ([2]; Day 29 minus Day 1): −91
Change in VAS QOR score, Max ([2]; Day 29 minus Day 1): 26
Change in VAS QOR score, Mean ([2]; Day 29 minus Day 1): −10.38
Change in VAS QOR score, Median ([2]; Day 29 minus Day 1): −3.0
Change in VAS QOR score, Min ([2]; Day 29 minus Day 1): −71
Concentration in plasma, Mean ([3]; DM/Q MTD 30 mg): 59.0 ng/mL
Concentration in plasma, Median ([3]; DM/Q MTD 30 mg): 67.4 ng/mL
Concentration in plasma, Mean ([3]; DM/Q MTD 60 mg): 46.2 ng/mL
Concentration in plasma, Median ([3]; DM/Q MTD 60 mg): 1.5 ng/mL
Concentration in plasma, Mean ([3]; DM/Q MTD 90 mg): 117.0 ng/mL
Concentration in plasma, Median ([3]; DM/Q MTD 90 mg): 117.0 ng/mL
Concentration in plasma, Mean ([3]; DM/Q MTD 120 mg): 192.6 ng/mL
Concentration in plasma, Median ([3]; DM/Q MTD 120 mg): 178.0 ng/mL
Concentration in plasma, Mean ([3]; Total, all MTDs): 153.7 ng/mL
Concentration in plasma, Median ([3]; Total, all MTDs): 144.5 ng/mL
Concentration in plasma ([3]; poor metabolizer (MTD of 60 mg)): 126.4 ng/mL
Adverse effects reported during the phenotyping study [4]: One
